Reference: ChEMBL document CHEMBL1759965, “Synthesis and pharmacological evaluation of bivalent antagonists of the nociceptin opioid receptor” (Eur J Med Chem, 2011)
Activity calls are given as the source filed them. The rule behind the calls is not given here.

Legend:
Nociceptin receptor [1] = target: T1, Nociceptin receptor (Homo sapiens, UniProt P41146); test: Antagonist activity at human NOP receptor expressed in human HEK293 cells assessed as inhibition of GTPgammaS binding in presence of 300 nM GDP relative to control; format: functional, cell-based
Nociceptin receptor [2] = target: T1, Nociceptin receptor; test: Displacement of [125I]Tyr14-nociceptin from human NOP receptor expressed in human HEK293 cells after 90 mins by scintillation counting
Homo sapiens [3] = species: Homo sapiens; test: Selectivity ratio of IC50 for human mu opioid receptor to IC50 for human NOP receptor
Mu-type opioid receptor = Mu-type opioid receptor (Homo sapiens, UniProt P35372); test: Displacement of [3H]-naltrindole from human mu opioid receptor expressed in CHO cells after 2 hrs by scintillation counting; format: cell-based
[4] = target: Kappa-type opioid receptor (Homo sapiens, UniProt P41145); test: Displacement of [3H]-diprenorphine from human kappa opioid receptor expressed in human HEK293 cells after 2 hrs by scintillation counting
[5] = target: Delta-type opioid receptor (Homo sapiens) (UniProt P41143); test: Displacement of [3H]-naltrindole from human delta opioid receptor expressed in human HEK293 cells after 2 hrs by scintillation counting; format: cell-based
Homo sapiens [6] = species: Homo sapiens; test: Selectivity ratio of IC50 for human kappa opioid receptor to IC50 for human NOP receptor

Kappa-type opioid receptor, sequence (P41145 whole entry): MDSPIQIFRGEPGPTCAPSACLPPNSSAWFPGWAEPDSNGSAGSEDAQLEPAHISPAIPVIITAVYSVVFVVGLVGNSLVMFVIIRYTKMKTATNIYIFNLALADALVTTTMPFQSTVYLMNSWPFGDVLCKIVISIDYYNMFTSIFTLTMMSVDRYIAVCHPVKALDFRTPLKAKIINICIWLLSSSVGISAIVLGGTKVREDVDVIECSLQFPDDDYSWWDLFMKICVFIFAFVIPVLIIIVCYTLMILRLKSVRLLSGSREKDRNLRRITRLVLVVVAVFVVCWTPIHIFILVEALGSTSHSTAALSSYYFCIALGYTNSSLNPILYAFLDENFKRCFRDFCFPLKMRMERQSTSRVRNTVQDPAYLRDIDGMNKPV
Delta-type opioid receptor (Homo sapiens), sequence (P41143 whole entry): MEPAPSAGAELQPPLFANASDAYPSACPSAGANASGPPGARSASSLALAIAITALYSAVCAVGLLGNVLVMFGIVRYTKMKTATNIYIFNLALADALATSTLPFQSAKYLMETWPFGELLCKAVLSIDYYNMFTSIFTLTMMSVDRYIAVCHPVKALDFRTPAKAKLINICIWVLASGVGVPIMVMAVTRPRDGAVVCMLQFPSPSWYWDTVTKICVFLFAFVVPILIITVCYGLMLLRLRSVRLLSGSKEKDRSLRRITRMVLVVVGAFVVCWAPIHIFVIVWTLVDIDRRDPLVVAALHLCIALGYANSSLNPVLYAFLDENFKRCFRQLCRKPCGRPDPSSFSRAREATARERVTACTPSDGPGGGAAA
Mu-type opioid receptor, sequence (P35372 whole entry): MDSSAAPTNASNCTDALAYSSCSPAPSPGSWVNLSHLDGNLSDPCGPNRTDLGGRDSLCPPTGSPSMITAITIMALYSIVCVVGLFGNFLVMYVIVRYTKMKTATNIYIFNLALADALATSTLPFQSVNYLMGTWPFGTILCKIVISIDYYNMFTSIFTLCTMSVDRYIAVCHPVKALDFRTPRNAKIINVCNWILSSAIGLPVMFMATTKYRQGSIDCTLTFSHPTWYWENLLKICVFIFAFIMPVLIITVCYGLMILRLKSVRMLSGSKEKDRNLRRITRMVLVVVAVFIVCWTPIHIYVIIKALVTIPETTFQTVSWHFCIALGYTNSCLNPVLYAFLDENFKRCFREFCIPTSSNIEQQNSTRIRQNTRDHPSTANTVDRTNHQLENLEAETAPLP
T1 sequence (P41146 whole entry): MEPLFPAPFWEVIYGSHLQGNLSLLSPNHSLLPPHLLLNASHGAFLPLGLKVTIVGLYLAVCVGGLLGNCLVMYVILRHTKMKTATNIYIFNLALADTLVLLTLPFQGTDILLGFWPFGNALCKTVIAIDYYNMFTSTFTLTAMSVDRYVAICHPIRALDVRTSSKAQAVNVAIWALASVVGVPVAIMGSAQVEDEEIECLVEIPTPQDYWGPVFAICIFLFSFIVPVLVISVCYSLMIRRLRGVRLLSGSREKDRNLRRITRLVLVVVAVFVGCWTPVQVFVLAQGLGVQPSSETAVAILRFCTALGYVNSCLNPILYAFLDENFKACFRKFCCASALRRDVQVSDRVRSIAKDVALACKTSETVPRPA

Structure (SMILES)	Activity (Nociceptin receptor [1])	IC50 (Nociceptin receptor [2])	Ratio IC50 (Homo sapiens [3])	IC50 (Mu-type opioid receptor)	IC50 [4]	Activity [5]	Ratio IC50 (Homo sapiens [6])
CCCCCCCNCc1ccc(OCc2ccccc2C(=O)Nc2ccc3nc(C)cc(N)c3c2)cc1	Active	668 nM	6.6	1980 nM	1850 nM	inactive	6.2
Cc1cc(N)c2cc(NC(=O)c3ccccc3COc3ccc(CNCCCCCCN)cc3)ccc2n1	Active	1110 nM	7.4	6000 nM	1220 nM	inactive	1.5
CCCCCCCCCNCc1ccc(OCc2ccccc2C(=O)Nc2ccc3nc(C)cc(N)c3c2)cc1	Active	305 nM	11	2170 nM	2560 nM	inactive	13
Cc1cc(N)c2cc(NC(=O)c3ccccc3COc3ccc(CNCCCCCCCNCc4ccc(OCc5ccccc5C(=O)Nc5ccc6nc(C)cc(N)c6c5)cc4)cc3)ccc2n1	Active	30.1 nM	34	1040 nM	1020 nM	inactive	33
Cc1cc(N)c2cc(NC(=O)c3ccccc3COc3ccc(CNCCCCCCCCCNCc4ccc(OCc5ccccc5C(=O)Nc5ccc6nc(C)cc(N)c6c5)cc4)cc3)ccc2n1	Active	28.1 nM	40	1160 nM	1050 nM	inactive	36
CCCCNCc1ccc(OCc2ccccc2C(=O)Nc2ccc3nc(C)cc(N)c3c2)cc1	Active	1120 nM	8.6	5110 nM	5920 nM	inactive	10
